Structures are written as SMILES. Counter-ions that a name gives are not always drawn.

Drawing on US7253286B2, “Nitrogen-containing aromatic derivatives” (Eisai Co., Ltd, priority 2000, dated 2007), this text covers IC50 for 26 compounds.

The test system of this assay is Human Umbilical Vein Endothelial Cells (HUVECs). Nature of the assay: Inhibition against sandwich tube formation by vascular endothelial cells in response to stimulation by VEGF. Type of assay: cell-based. The settings on record: HUVEC in collagen gel sandwich, stimulation by VEGF (25 ng/ml VEGF and 10 ng/ml EGF), 4th day, total tube length, read-out: IC50 (concentration required for 50% inhibition of tube formation). As for the experimental part:
Inhibition Against Sandwich Tube Formation by Vascular Endothelial Cells in Response to Stimulation by Angiogenic Factor
Human Umbilical Vein Endothelial Cells (HUVECS) were isolated by the same method as in Pharmacological Test Example 1, and were cultured in a 5% CO2 incubator (37° C.) using EGM-2 medium (purchased from Clonetics Corp.) until the cells reached confluency.
An ice-cooled mixture of collagen: 5× RPMI 1640: reconstitution buffer (all purchased from Nitta Gelatin, Inc.) at 7:2:1 was dispensed at 0.4 ml into each well of a 24-well plate, and then stationed for 40 minutes in a 5% CO2 incubator (37° C.) for gelling. The HUVECs were recovered using trypsin-EDTA and then suspended in human endothelial serum free medium (SFM, purchased from GIBCO BRL) containing added angiogenic factors [20 ng/ml FGF2 (purchased from GIBCO BRL) and 10 ng/ml EGF (purchased from GIBCO BRL), or 25 ng/ml VEGF (purchased from Wako Pure Chemical Industries Co., Ltd.) and 10 ng/ml EGF, or 30 ng/ml HGF (purchased from R&D Co.) and 10 ng/ml EGF], and the cell suspension was added at 0.4 ml to each well (with the cell counts differing slightly according to the HUVEC lot), and cultured overnight in a 5% CO2 incubator (37° C.). On the following day, the medium on the upper layer was aspirated off, and then 0.4 ml of an ice-cooled mixture of collagen: 5× RPMI 1640: reconstitution buffer (all purchased from Nitta Gelatin, Inc.) at 7:2:1 was superposed into each well prior to stationing for 4 hours in a 5% CO2 incubator (37° C.) for gelling. After adding 1.5 ml of an SFM solution containing each of the aforementioned angiogenic factors and a diluted test substance onto the upper layer, culturing was performed in a 5% CO2 incubator (37° C.). Upon aspirating off the culture supernatant in each well on the 4th day after addition of the test substance, 0.4 ml of a 3.3 mg/ml MTT solution dissolved in PBS (purchased from Sigma Corp.) was added to each well and culturing was performed for approximately 2 hours in a 5% CO2 incubator (37° C.). The tubes formed in the collagen gel of each well were stained by the MTT, the tube images were loaded into a computer (Macintosh), and the total length of the tubes was determined by image analysis software “MacScope” (purchased from Mitani Corp.). The ratio of the total length of the tubes formed in the well containing the test substance with respect to the total length of the tubes formed in the well containing no test substance was expressed as a percentage, and the concentration of each test substance required for 50% inhibition of tube formation (IC50) was determined from the ratio value.
Turning to `NC(=O)c1cc2c(Oc3ccc(NC(=O)NC4CC4)c(Cl)c3)ccnc2cc1OCCO` [Example 386, 4-(3-Chloro-4-(cyclopropylaminocarbonyl)aminophenoxy)-7-(2-hydroxyethoxy)-6-quinolinecarboxamide], the IC50 was 10 nM. In the case of `COc1cc2nccc(Oc3ccc(NC(=O)NC4CC4)c(Cl)c3)c2cc1C(=O)Nc1ncc[nH]1` [Example 405, N6-(1H-2-Imidazolyl)-4-(3-chloro-4-(((cyclopropylamino)carbonyl)amino)phenoxy)-7-methoxy-6-quinolinecarboxamide] it was 28 nM; in that of `COc1cc2nccc(Oc3ccc(NC(=O)NC4CC4)c(Cl)c3)c2cc1C(=O)Nc1cccnc1` [Example 408, N6-(3-Pyridyl)-4-(3-chloro-4-(((cyclopropylamino)carbonyl)amino)phenoxy)-7-methoxy-6-quinolinecarboxamide], 39 nM. Take `CCN(CC)CCCOc1cc2nccc(Oc3ccc(NC(=O)NC4CC4)c(Cl)c3)c2cc1C#N` [Example 419, N-(2-Chloro-4-((6-cyano-7-(3-(diethylamino)propoxy)-4-quinolyl)oxy)phenyl)-N′-cyclopropylurea]: the IC50 turned out to be 10 nM. On to `COC(=O)c1cc2c(Oc3ccc(N(C)C(=O)Nc4ccc(F)cc4)cc3)ccnc2cc1OC` [Example 433, Methyl 4-(4-(((4-fluoroanilino)carbonyl)(methyl)amino)phenoxy)-7-methoxy-6-quinoline carboxylate], for which the IC50 was 5.6 nM. In the case of `COCCNC(=O)c1cc2c(Oc3ccc(N(C)C(=O)Nc4ccc(F)cc4)cc3)ccnc2cc1OC` [Example 436, N6-(2-Methoxyethyl)-4-(4-(((4-fluoroanilino)carbonyl)(methyl)amino)phenoxy)-7-methoxy-6-quinolinecarboxamide] it was 22 nM.

`COc1cc2nccc(Oc3ccc(NC(=O)NC4CC4)c(Cl)c3)c2cc1C(=O)NCCC#N` [Example 440, N6-(2-Cyanoethyl)-4-(3-chloro-4-(((cyclopropylamino)carbonyl)amino)phenoxy)-7-methoxy-6-quinolinecarboxamide]: the IC50 is 1.4 nM.

Turning to `CNC(=O)c1cc2c(Oc3ccc(NC(=O)NC4CC4)c(Cl)c3)ccnc2cc1OC` [Example 442, N6-Methyl-4-(3-chloro-4-(((cyclopropylamino)carbonyl)amino)phenoxy)-7-methoxy-6-quinolinecarboxamide], the IC50 amounted to 7.2 nM. The value for `CCCNC(=O)c1cc2c(Oc3ccc(NC(=O)NC4CC4)c(Cl)c3)ccnc2cc1OC` [Example 444, N6-Propyl-4-(3-chloro-4-(((cyclopropylamino)carbonyl)amino)phenoxy)-7-methoxy-6-quinolinecarboxamide] was 5.5 nM; that for `C#CCNC(=O)c1cc2c(Oc3ccc(NC(=O)NC4CC4)c(Cl)c3)ccnc2cc1OC` [Example 445, N6-Propargyl-4-(3-chloro-4-(((cyclopropylamino)carbonyl)amino)phenoxy)-7-methoxy-6-quinolinecarboxamide] was 6.2 nM. For the compound `COc1cc2nccc(Oc3ccc(NC(=O)NC4CC4)c(Cl)c3)c2cc1C(=O)NCC1CC1` [Example 446, N6-Cyclopropylmethyl-4-(3-chloro-4-(((cyclopropylamino)carbonyl)amino)phenoxy)-7-methoxy-6-quinolinecarboxamide], the IC50 is 4 nM. Turning to `COc1cc2nccc(Oc3ccc(NC(=O)NC4CC4)c(Cl)c3)c2cc1C(=O)NC[C@H]1CCCO1` [Example 450, N6-((2R)Tetrahydro-2-furanylmethyl)-4-(3-chloro-4-(((cyclopropylamino)carbonyl)amino)phenoxy)-7-methoxy-6-quinolinecarboxamide], the IC50 stood at 4.5 nM. For the compound `N#Cc1cc2c(Oc3ccc(NC(=O)Nc4ccc(F)cc4)cc3)ccnc2cc1OC[C@H](O)CN1CCCC1` [Example 454, N-(4-((6-Cyano-7-(((2R)-2-hydroxy-3-(1-pyrrolidino)propyl)oxy)-4-quinolyl)oxy)phenyl)-N′-(4-fluorophenyl)urea], the IC50 came to 3.7 nM.

For `CCN(CC)C[C@@H](O)COc1cc2nccc(Oc3ccc(NC(=O)Nc4ccc(F)cc4)cc3)c2cc1C#N` [Example 455, N-(4-((6-Cyano-7-(((2R)-3-(diethylamino)-2-hydroxypropyl)oxy)-4-quinolyl)oxy)phenyl)-N′-(4-fluorophenyl)urea], the IC50 was 7.8 nM. The value for `COc1cc2nccc(Oc3ccc(NC(=O)NC4CC4)c(C)c3C)c2cc1C(N)=O` [Example 490, N-[4-(6-Carbamoyl-7-methoxy-4-quinolyl)oxy-2,3-dimethylphenyl]-N′-cyclopropylurea] was 26 nM; that for `N#Cc1cc2c(Oc3ccc(NC(=O)Nc4ccc(F)cc4)c(F)c3)ccnc2cc1OCC(O)CN1CCCC1` (centres unmarked) [Example 492, N-{4-[6-Cyano-7-(2-hydroxy-3-(pyrrolidin-1-yl)propoxy)quinolin-4-yloxy]-2-fluorophenyl}-N′-(4-fluorophenyl)urea] was 7.2 nM; that for `CCN(CC)CC(O)COc1cc2nccc(Oc3ccc(NC(=O)Nc4ccc(F)cc4)c(F)c3)c2cc1C#N` (centres unmarked) [Example 493, N-{4-[6-Cyano-7-(3-diethylamino-2-hydroxypropoxy)quinolin-4-yloxy]-2-fluorophenyl}-N′-(4-fluorophenyl)urea] was 9 nM. The value for `N#Cc1cc2c(Oc3ccc(NC(=O)Nc4ccc(F)cc4)c(F)c3)ccnc2cc1OCC(O)CN1CCOCC1` (centres unmarked) [Example 494, N-{4-[6-Cyano-7-(2-hydroxy-(3-morpholin-4-yl)propoxy)quinolin-4-yloxy]-2-fluorophenyl}-N′-(4-fluorophenyl)urea] was 9.3 nM. In the case of `N#Cc1cc2c(Oc3ccc(NC(=O)Nc4ccc(F)cc4)c(F)c3)ccnc2cc1OC[C@H](O)CN1CCCCC1` [Example 497, N-(4-{6-Cyano-7-[(2R)-2-hydroxy-3-(piperidin-1-yl)propoxy]quinolin-4-yloxy}-2-fluorophenyl)-N′-(4-fluorophenyl)urea] it was 4.6 nM. As to `N#Cc1cc2c(Oc3ccc(NC(=O)Nc4nccs4)c(F)c3)ccnc2cc1OCC1CCNCC1` [Example 503, N-{4-[6-Cyano-7-(piperidin-4-ylmethoxy)quinolin-4-yloxy]-2-fluorophenyl}-N′-(2-thiazolyl)urea], the IC50 was determined as 6.4 nM. For the compound `CN1CCC(COc2cc3nccc(Oc4ccc(NC(=O)Nc5nccs5)c(F)c4)c3cc2C#N)CC1` [Example 504, N-{4-[6-Cyano-7-(1-methylpiperidin-4-ylmethoxy)quinolin-4-yloxy]-2-fluorophenyl}-N′-(2-thiazolyl)urea], the IC50 was determined as 4.6 nM. In the case of `CN1CCCC(COc2cc3nccc(Oc4ccc(NC(=O)Nc5nccs5)c(F)c4)c3cc2C#N)C1` (centres unmarked) [Example 505, N-{4-[6-Cyano-7-(1-methylpiperidin-3-ylmethoxy)quinolin-4-yloxy]-2-fluorophenyl}-N′-(2-thiazolyl)urea] it was 8.9 nM. In the case of `CCNC(=O)n1ccc2cc(Oc3ccnc4cc(OC)c(C(=O)NCCF)cc34)ccc21` [Example 518] it was 1.3 nM; in that of `CCNC(=O)n1ccc2cc(Oc3ccnc4cc(OC)c(C(=O)NOC)cc34)ccc21` [Example 520, 6-Methoxycarbamoyl-7-methoxy-4-((1-ethylcarbamoyl)indol-5-yloxy)quinoline], 1.5 nM; in that of `CONC(=O)c1cc2c(Oc3ccc4c(ccn4C(=O)NC4CC4)c3)ccnc2cc1OC` [Example 521, 6-Methoxycarbamoyl-7-methoxy-4-((1-cyclopropylcarbamoyl)indol-5-yloxy)quinoline], 0.5 nM. In the case of `COc1cc(Nc2cc(Oc3ccc(NC(=O)Nc4ccccc4)cc3)ncn2)cc(OC)c1OC` [Example 578, N-Phenyl-N′-(4-(6-(3,4,5-trimethoxyphenylamino)pyrimidin-4-yloxy)phenyl)urea hydrochloride] it was 13 nM.
